Source: US5187277A, “DL-3-[4-[4-(2-pyridyl)-1-piperazinyl]-butyl]-1,8,8-trimethyl-3-az abicyclo[(3]octane-2,4-dione having psychotropic and antiemetic effect” (priority 1990, dated 1993)
Where a name gives a salt, the structure may show the parent alone. Read-outs that look alike come from different tables or passages of the source.

Legend:
[1] = effect characteristic of tranquilizers and neuroleptics (anxiolytic, antiaggressive, antiapomorphine and hexobarbital-potentiation effects); assay type: in vivo; details: systematic application of dihydrochloride
Method: (§1) The compounds were introduced intraperitoneally and orally 20-60 minutes before the beginning of the test. The minimum effective doses (MED) increasing the number of water takings and increasing the period of staying in an illuminated area by at least 50%, were determined. The neuroleptic activity was detected and measured using the "rat fight" method and the "climbing" test of mice (P. Protais et al. Psychopharmacology, 50, p. 1, 1976). […] The antiemetic effect on vomiting caused by apomorphine or cisplatin was studied in pigeons (P. Presiosi et al., Arch. Int. Pharmacodyn., 298, p. 301, 1989) and mongrel dogs having a weight of 6-8 kg.

[2] = sedative activity, suppression of orientation behaviour; assay type: in vivo; details: ip, read-out: Sedative activity ED50, suppression of orientation behaviour
[3] = myorelaxation activity, rotating rod test; assay type: in vivo; details: for ED50: ip, read-out: Myorelaxation activity ED50
[4] = sedative activity, suppression of motor activity (spontaneous locomotion); assay type: in vivo; details: for ED50: ip, read-out: Sedative activity ED50, suppression of motor activity
in vivo = details: ip
rats (conflict tests) = experiment: anxiolytic activity in conflict situation model; assay type: in vivo; details: for minimal effective dose: Rattus norvegicus, read-out: Anxiolytic activity MED in conflict tests
Method: as §1

mongrel dogs [5] = experiment: antiemetic activity, vomiting caused by cisplatin in dogs; assay type: in vivo; details: Canis lupus familiaris; dog tests
Method: as §1

rat = experiment: antiaggressive activity ("rat fight" method); assay type: in vivo; details: for ED50: Rattus norvegicus, read-out: Antiaggressive activity ED50
Method: as §1

mongrel dogs [6] = experiment: antiemetic activity, vomiting caused by apomorphine in dogs; assay type: in vivo; details: Canis lupus familiaris; dog tests
Method: as §1

pigeons [7] = experiment: antiemetic activity, vomiting caused by apomorphine in pigeons; assay type: in vivo; details: for ED50: Columbidae, ip, read-out: Antiemetic activity, ED50
Method: as §1

[8] = test system: rats (avoiding illuminated area tests); experiment: anxiolytic activity by the method of avoiding illuminated areas; assay type: in vivo; details: for minimal effective dose: Rattus norvegicus, read-out: Anxiolytic activity MED in "avoiding illuminated area" tests
Method: as §1

[9] = from Table 2
mice = experiment: antiapomorphine activity in "climbing" test of mice; assay type: in vivo; details: for ED50: Mus musculus, ip, read-out: Antiapomorphine activity in "climbing" test ED50
Method: as §1

[10] = hexobarbital-potentiation effect (narcosepotentiation, nonnarcotic dose of hexobarbital); assay type: in vivo; details: for ED50: read-out: Hexobarbital-potentiation effect ED50
pigeons [11] = experiment: antiemetic activity, vomiting caused by cisplatin in pigeons; assay type: in vivo; details: Columbidae, ip, read-out: Antiemetic activity, ED50
Method: as §1

[12] = cataleptogenic (extrapyramidic) activity; details: in vivo
[13] = ip, rats, i/p, minimum effective dose increasing number of water takings by at least 50%, dihydrochlorides of I, VI, VII
[14] = po, rats, orally, minimum effective dose increasing number of water takings by at least 50%, dihydrochlorides of I, VI, VII
[15] = pigeons, vomiting caused by apomorphine, i/p
[16] = ip, rats, i/p, minimum effective dose increasing period of staying in illuminated area by at least 50%
[17] = po, rats, orally, minimum effective dose increasing period of staying in illuminated area by at least 50%
[18] = pigeons, vomiting caused by cisplatin, i/p

**Q.** With `CC12CCC(C(=O)N(CCCCN3CCN(c4ccccn4)CC3)C1=O)C2(C)C` (racemic) [Compound I, DL-3-[4-[4-(2-pyridyl)-1-piperazinyl]-butyl]-1,8,8-trimethyl-3-azabicyclo[3,2,1]octane-2,4-dione dihydrochloride] as the compound, how does the “dose range producing anxiolytic, antiaggressive, antiapomorphine and hexobarbital-potentiation effects” value [1] read?
**A.** Its value is 0.1-50 mg/kg of a body weight.

**Q.** What about the ED50 ([2]; i/p) of the same compound?
**A.** Its ED50 is 3.9 ± 0.9 mg/kg.

**Q.** And the “myorelaxation activity compared with diazepame” value ([3]; from Table 2)?
**A.** The value was “much lower than the activity and toxicity of diazepame”.

**Q.** And the ED50 ([3]; i/p)?
**A.** The ED50 was 44.5 ± 10 mg/kg.

**Q.** And the “sedative activity compared with diazepame” value ([4]; from Table 2)?
**A.** Its value is “much lower than the activity and toxicity of diazepame”.

**Q.** What about the ED50 ([4]; i/p) of the same compound?
**A.** Its ED50 is 2.8 ± 0.7 mg/kg.

**Q.** What about the LD50 (in vivo) of the same compound?
**A.** Its LD50 is 208 ± 20 mg/kg.

**Q.** And the minimal effective dose (rats (conflict tests); [13])?
**A.** The minimal effective dose was 1 mg/kg.

**Q.** And the minimal effective dose (rats (conflict tests); [14])?
**A.** Its minimal effective dose is 3 mg/kg.

**Q.** What about the “antianxiety activity relative to buspirone and said bicyclic imides” value (rats (conflict tests); conflict situation model) of the same compound?
**A.** Its value is “three times as large”.

**Q.** And the “anxiolytic doses compared with diazepame” value (rats (conflict tests); intraperitoneally)?
**A.** Its value is “coincide with the similar doses of diazepame”.

**Q.** What about the “anxiolytic activity relative to compounds VI, VII” value (rats (conflict tests); two anxiety models, intraperitoneally, conflict test) of the same compound?
**A.** The value was “three times as large”.

**Q.** What about the ED50 (mongrel dogs [5]) of the same compound?
**A.** The ED50 was 0.013 ± 0.005 mg/kg.

**Q.** And the ED50 (rat; ip, i/p)?
**A.** The ED50 was 7.45 ± 1.6 mg/kg.

**Q.** What about the ED50 (rat; po, orally) of the same compound?
**A.** The ED50 was 30.8 ± 4.14 mg/kg.

**Q.** What about the “antiaggressive activity relative to buspirone and bicyclic imides” value (rat; antiaggressive test) of the same compound?
**A.** The value was “two to four times as large”.

**Q.** And the ED50 (mongrel dogs [6])?
**A.** The ED50 was 0.02 ± 0.006 mg/kg.

**Q.** What about the ED50 (pigeons [7]; [15]) of the same compound?
**A.** Its ED50 is 0.11 ± 0.02 mg/kg.

**Q.** What about the “antiemetic effect relative to all comparable compounds (haloperidol, triphthazine, metoclopramide)” value (pigeons [7]; fold, versus haloperidol, triphthazine, metoclopramide, emetogen not specified (apomorphine or cisplatin)) of the same compound?
**A.** Its value is 10-100 times.

**Q.** And the “antiemetic and antiapomorphine activities compared with other compounds” value (pigeons [7]; pigeons, from Table 3)?
**A.** Its value is “substantially higher than those of other compounds”.

**Q.** And the minimal effective dose [8, 16]?
**A.** Its minimal effective dose is 1 mg/kg.

**Q.** And the minimal effective dose [8, 17]?
**A.** Its minimal effective dose is 10 mg/kg.

**Q.** And the “anxiolytic activity relative to compounds VI, VII” value ([8]; two anxiety models, intraperitoneally, avoiding illuminated area)?
**A.** The value was “three times as large”.

**Q.** What about the “toxicity compared with diazepame” value [9] of the same compound?
**A.** Its value is “much lower than the activity and toxicity of diazepame”.

**Q.** And the ED50 (mice; mice, i/p)?
**A.** The ED50 was 0.7 ± 0.13 mg/kg.

**Q.** What about the “climbing test activity relative to buspirone and bicyclic imides” value (mice; climbing test) of the same compound?
**A.** Its value is “two to four times as large”.

**Q.** And the “apomorphine antagonism in "climbing" test compared with haloperidol” value (mice; mouse, in vivo)?
**A.** Its value is “comparable to haloperidol”.

**Q.** And the “hexobarbital-potentiating activity compared with diazepame” value ([10]; in vivo)?
**A.** Its value is “essentially lower than the activity of diazepame”.

**Q.** What about the ED50 ([10]; ip, i/p) of the same compound?
**A.** Its ED50 is 17.6 ± 2.9 mg/kg.

**Q.** And the ED50 ([10]; po, orally)?
**A.** Its ED50 is 12.5 ± 3.14 mg/kg.

**Q.** And the ED50 (pigeons [11]; [18])?
**A.** The ED50 was 0.4 ± 0.07 mg/kg.

**Q.** And the “cataleptogenic (extrapyramidic) activity” value [12]?
**A.** The value was “free of cataleptogenic (extrapyramidic) activity”.

**Q.** Which ED50 ([2]; i/p) does the source give for `CC12CCC(C(=O)N(CCCCN3CCN(c4ncccn4)CC3)C1=O)C2(C)C` (racemic) [VII, DL-3-[4-(2-pyrimidinyl)-1-piperazinyl]-butyl]-1,8,8-trimethyl-3azabic yclo[3,2,1]octane-2,4-dione] here?
**A.** Its ED50 is 7.7 ± 1.6 mg/kg.

**Q.** And the ED50 ([3]; i/p)?
**A.** Its ED50 is 52.5 ± 12 mg/kg.

**Q.** What about the ED50 ([4]; i/p) of the same compound?
**A.** Its ED50 is 5.4 ± 2.3 mg/kg.

**Q.** And the LD50 (in vivo)?
**A.** The LD50 was 211 ± 31 mg/kg.

**Q.** And the minimal effective dose (rats (conflict tests); [13])?
**A.** Its minimal effective dose is 3 mg/kg.

**Q.** And the minimal effective dose (rats (conflict tests); [14])?
**A.** Its minimal effective dose is 3 mg/kg.

**Q.** What about the ED50 (rat; ip, i/p) of the same compound?
**A.** The ED50 was 28.5 ± 4.2 mg/kg.

**Q.** And the ED50 (rat; po, orally)?
**A.** Its ED50 is 81.5 ± 8.3 mg/kg.

**Q.** And the ED50 (pigeons [7]; [15])?
**A.** The ED50 was 1.8 ± 0.4 mg/kg.

**Q.** What about the minimal effective dose [8, 16] of the same compound?
**A.** Its minimal effective dose is 3 mg/kg.

**Q.** And the minimal effective dose [8, 17]?
**A.** The minimal effective dose was 10 mg/kg.

**Q.** And the ED50 (mice; mice, i/p)?
**A.** Its ED50 is 1.31 ± 0.15 mg/kg.

**Q.** What about the ED50 ([10]; ip, i/p) of the same compound?
**A.** The ED50 was 11.9 ± 2.2 mg/kg.

**Q.** What about the ED50 ([10]; po, orally) of the same compound?
**A.** The ED50 was 36.5 ± 8.11 mg/kg.

**Q.** What about the ED50 (pigeons [11]; [18]) of the same compound?
**A.** Its ED50 is 4.6 ± 0.8 mg/kg.

**Q.** Which results are given for `CN1C(=O)CN=C(c2ccccc2)c2cc(Cl)ccc21` [Diazepame]?
**A.** ED50 [2]: 0.6 ± 0.2 mg/kg; ED50 [3]: 2.4 ± 0.2 mg/kg; ED50 [4]: 0.6 ± 0.2 mg/kg; minimal effective dose (rats (conflict tests); ip): 1 mg/kg; ED50 (rat; po): 5.9 ± 1.28 mg/kg; minimal effective dose ([8]; ip): 1 mg/kg; minimal effective dose ([8]; po): 1 mg/kg; ED50 ([10]; ip): 0.3 ± 0.1 mg/kg; ED50 ([10]; po): 0.48 ± 0.12 mg/kg

**Q.** What does the source list for `O=C(CCCN1CCC(O)(c2ccc(Cl)cc2)CC1)c1ccc(F)cc1` [Haloperidol]?
**A.** minimal effective dose (rats (conflict tests); ip): > 3 mg/kg; ED50 (pigeons [7]): 3.4 ± 0.5 mg/kg; ED50 (mice): 0.67 ± 0.06 mg/kg; ED50 (pigeons [11]): 4.4 ± 0.9 mg/kg

**Q.** For `CCN(CC)CCNC(=O)c1cc(Cl)c(N)cc1OC` [Metoclopramide], which ED50 (pigeons [7]; [15]) is on record?
**A.** Its ED50 is 12 ± 1.7 mg/kg.

**Q.** And the ED50 (pigeons [11]; [18])?
**A.** Its ED50 is 9.7 ± 1.1 mg/kg.

**Q.** Which results are given for `CCN1CCCC1CNC(=O)c1cc(S(N)(=O)=O)ccc1OC` (centres unmarked) [Sulpyride]?
**A.** ED50 (rat; ip, i/p): 60.6 ± 16.6 mg/kg; ED50 (mice; mice, i/p): 8.4 ± 1.3 mg/kg

**Q.** Which results are given for `CN1CCN(CCCN2c3ccccc3Sc3ccc(C(F)(F)F)cc32)CC1` [Trifluoperazine]?
**A.** ED50 (pigeons [7]; [15]): 4.6 ± 0.8 mg/kg; ED50 (pigeons [11]; [18]): 5.5 ± 0.9 mg/kg

**Q.** With `O=C1CC2(CCCC2)CC(=O)N1CCCCN1CCN(c2ncccn2)CC1` [VI, 8-[4-[4-(2-pyrimidinyl)-1-piperazinyl]butyl]-8-azaspiro[4,5]decane-7 ,9-dione] as the compound, how does the ED50 ([2]; i/p) read?
**A.** Its ED50 is 7.6 ± 1.9 mg/kg.

**Q.** And the ED50 ([3]; i/p)?
**A.** The ED50 was 54.2 ± 8.1 mg/kg.

**Q.** What about the ED50 ([4]; i/p) of the same compound?
**A.** Its ED50 is 8.7 ± 1.8 mg/kg.

**Q.** What about the LD50 (in vivo) of the same compound?
**A.** Its LD50 is 140 ± 20 mg/kg.

**Q.** And the minimal effective dose (rats (conflict tests); [13])?
**A.** Its minimal effective dose is 3 mg/kg.

**Q.** And the minimal effective dose [8, 16]?
**A.** The minimal effective dose was 3 mg/kg.

**Q.** And the ED50 (mice; mice, i/p)?
**A.** The ED50 was 2.6 ± 0.46 mg/kg.

**Q.** What about the ED50 ([10]; ip, i/p) of the same compound?
**A.** The ED50 was 8.2 ± 2.4 mg/kg.
